This passage reports EC50 results from patent US8222414B2, “Indole compounds as an inhibitor of cellular necrosis” (LG Life Sciences Ltd., priority 2007, dated 2012).

The first experiment deals with primary hepatocytes isolated from rats. The experiment in a line: Cell protective effects against doxorubicin in hepatocytes (WST-1 cell viability). Format: cell-based. The conditions noted are these: Hepatocyte; primary rat hepatocytes pretreated with compound for 30 min, then doxorubicin; viability by WST-1 after 24-48 h. As to the method:
Various endogenous/exogenous attacks on the cells trigger the mechanisms of cell death which is broadly classified into two types, i.e. apoptosis or necrosis. Using these cell death mechanisms, in the present experimental example, primacy hepatocytes isolated from rats were treated with drugs which were clinically shown to result in serious side-effects of hepatocyte toxicity or various chemicals which derive cell death, and the compounds synthesized in the Examples were estimated for their hepatocyte protective effects, after 24-48 h. The substances used to derive hepatocyte death include CCl4, ActD, H2O2, doxorubicin, anti-Fas Ab/Actinomycin D, acetaminophen, EtOH, CdCl2, palmitate, stearate, cyclophosphamide, terfenadine, diclofenac, simvastatin, and adefovir. Primary hepatocytes were isolated using the method of Seglen P O (Experimental Cell Research 74 (1972) pp 450-454). Briefly, hepatocytes were isolated according to the two-step collagenase perfusion method, and dead cells were removed by low speed (500 rpm) centrifugation for 10 min using percoll gradient (Kreamer B L etc, In Vitro Cellular & Developmental Biology 22 (1986) pp 201-211). During this step, the viability of cells was maintained 90% or above. The cells were suspended in HepatoZYME media (Gibco BRL), and the number of cells was counted. 1.5×10^4 cells in 100 μl were placed into the collagen-coated 96-well plate (BD biocoat), and adhered on the bottom for 3-4 h.
In order to assess the hepatocyte protective effect, above adhered cells were pretreated with the Example compounds for 30 min. At this time, the concentration of the Example compounds were serially diluted by 2-fold or 3-fold over 5 steps starting from 30 uM, 10 uM or 1 uM depending on the experiments, and the final concentration of DMSO was adjusted to 0.2%. 30 min after the treatment by compounds, cells were treated by the substances deriving hepatocyte death or hepatotoxic drugs at the concentrations indicated in Table 1. After 24-48 h, the viability of cells was determined to estimate the hepatocyte protective effects. The viability of cells was determined using WST-1 (MK-400, […]) method by the absorbance at 440 nm. Hepatocyte protective effects of the Example compounds were represented by “EC50” which was calculated from measured values. “EC50” herein means the concentration of the compound at which 50% of maximum protective effect is observed in the experiment.
Background: Tetrazolium assays rely on reduction of a dye to a coloured formazan, in cell work by metabolically active cells.
In the case of `CN(C)c1cccc(CC[C@H]2CSC(c3cc4cc(Cl)cc(NC5CCCC5)c4[nH]3)=N2)c1` [Example 177, (5-Chloro-2-{(S)-4-[2-(3-dimethylamino-phenyl)-ethyl]-4,5-dihydro-thiazol-2-yl}-1H-indol-7-yl)-cyclopentyl-amine], the concentration for a half-maximal effect (EC50) is over 1000 nM. Same read-out and setting: to `CC(=O)N1CCN(CC[C@H]2CSC(c3cc4cc(Cl)cc(NC5CCCC5)c4[nH]3)=N2)CC1` [Example 178, 1-(4-{2-[(S)-2-(7-cyclopentylamino-5-chloro-1H-indol-2-yl)-4,5-dihydro-thiazol-4-yl]-ethyl}-piperazin-1-yl)-ethanone] belongs 230 nM; to `O=C1CN(CC[C@H]2CSC(c3cc4cccc(NC5CCOCC5)c4[nH]3)=N2)CCN1` [Example 182, (2-{(S)-4-[(2-oxopiperazin-4-yl)-ethyl]-4,5-dihydro-thiazol-2-yl}-1H-indol-7-yl)-(tetrahydro-pyran-4-yl)-amine], 375 nM; to `Cc1cc(NC2CCOCC2)c2[nH]c(C3=N[C@@H](CCN4CCOCC4)CS3)cc2c1` [Example 184, (5-Methyl-2-{(S)-4-[(morpholin-4-yl)-ethyl]-4,5-dihydro-thiazol-2-yl}-1H-indol-7-yl)-(tetrahydro-pyran-4-yl)-amine], 180 nM. The same measure, in the same setting: under `Clc1cc(NC2CCOCC2)c2[nH]c(C3=N[C@H](CCN4CCNCC4)CS3)cc2c1` [Example 193, (5-Chloro-2-{(R)-4-[(piperazin-1-yl)-ethyl]-4,5-dihydro-thiazol-2-yl}-1H-indol-7-yl)-(tetrahydro-pyran-4-yl)-amine] stands 650 nM. The same measure, in the same setting: to `Fc1cc(NC2CCCC2)c2[nH]c(C3=N[C@H](CCN4CCOCC4)CS3)cc2c1` [Example 201, (5-Fluoro-2-{(R)-4-[(morpholin-4-yl)-ethyl]-4,5-dihydro-thiazol-2-yl}-1H-indol-7-yl)-cyclopentyl-amine] belongs 330 nM; to `O=C1CCCN1CC[C@@H]1CSC(c2cc3cc(F)cc(NC4CCCC4)c3[nH]2)=N1` [Example 205, (5-Fluoro-2-{(R)-4-[(2-oxopyrrolidin-1-yl)-ethyl]-4,5-dihydro-thiazol-2-yl}-1H-indol-7-yl)-cyclopentyl-amine], 340 nM. Take `Clc1cc(NC2CCCC2)c2[nH]c(C3=N[C@H](CCCN4CCOCC4)CS3)cc2c1` [Example 222, (5-Chloro-2-{(R)-4-[(morpholin-4-yl)-propyl]-4,5-dihydro-thiazol-2-yl}-1H-indol-7-yl)-cyclopentyl-amine]: the EC50 is 180 nM. On the same count and under the same terms, to `CC(C)CN(CC(C)C)c1cc(Oc2ccccc2)cc2cc(C3=N[C@@H](CCN4CCCC4)CS3)[nH]c12` [Example 228, (5-Phenoxy-2-{(S)-4-[(pyrrolidin-1-yl)-ethyl]-4,5-dihydro-thiazol-2-yl}-1H-indol-7-yl)-diisobutyl-amine] belongs 130 nM; to `c1ccc(Oc2cc(NC3CCCC3)c3[nH]c(C4=N[C@@H](CCN5CCNCC5)CS4)cc3c2)cc1` [Example 230, (5-Phenoxy-2-{(S)-4-[(piperazin-1-yl)-ethyl]-4,5-dihydro-thiazol-2-yl}-1H-indol-7-yl)-cyclopentyl-amine], over 320 nM. The same measure, in the same setting: to `FCc1nnc2n1CCN(CC[C@H]1CSC(c3cc4cc(Oc5ccccc5)cc(NC5CCCC5)c4[nH]3)=N1)C2` [Example 232, Cyclopentyl-(5-phenoxy-2-{(S)-4-[2-(3-fluoromethyl-5,6-dihydro-8H-[1,2,4]triazolo[4,3-a]pyrazin-7-yl)-ethyl]-4,5-dihydro-thiazol-2-yl}-1H-indol-7-yl)-amine] belongs 240 nM; to `N[C@H]1CCN(CC[C@H]2CSC(c3cc4cc(Oc5ccccc5)cc(NC5CCCC5)c4[nH]3)=N2)C1` [Example 238, (5-Phenoxy-2-{(S)-4-[(3S)-3-(amino)pyrrolidin-1-yl-ethyl]-4,5-dihydro-thiazol-2-yl}-1H-indol-7-yl)-cyclopentyl-amine], 330 nM; to `Cc1cc(NCC2CCOCC2)c2[nH]c(C3=N[C@@H](CCN4CCCC4C(N)=O)CS3)cc2c1` (stereo partly drawn) [Example 240, (5-Methyl-2-{(S)-4-[2-(aminocarbonyl)pyrrolidin-1-yl-ethyl]-4,5-dihydro-thiazol-2-yl}-1H-indol-7-yl)-(tetrahydropyran-4-yl)methyl-amine], 280 nM. On the same count and under the same terms, to `CC1SC(c2cc3cccc(NCC4CCOCC4)c3[nH]2)=N[C@H]1C(O)C1CCCN1` (stereo partly drawn) [Example 241, (5-Methyl-[(S)-2-(7-(tetrahydropyran-4-yl)methylamino-1H-indol-2-yl)-4,5-dihydro-thiazol-4-yl])-pyrrolidin-2-yl-methanol] belongs 210 nM; to `CCOP(=O)(CC[C@H]1CSC(c2cc3cc(C)cc(NCC4CCOCC4)c3[nH]2)=N1)OCC` [Example 244, (5-Methyl-2-{(S)-4-[2-diethoxyphosphoryl-ethyl]-4,5-dihydro-thiazol-2-yl}-1H-indol-7-yl)-(tetrahydropyran-4-yl)methyl-amine], 195 nM; to `c1ccc(Oc2cc(NC3CCCC3)c3[nH]c(C4=N[C@H](CCN5CCCC5)CS4)cc3c2)cc1` [Example 246, (5-Phenoxy-2-{(R)-4-[pyrrolidin-1-yl-ethyl]-4,5-dihydro-thiazol-2-yl}-1H-indol-7-yl)-cyclopentyl-amine], 350 nM. With `c1ccc(Oc2cc(NCC3CCOCC3)c3[nH]c(C4=N[C@@H](CCN5CCOCC5)CS4)cc3c2)cc1` [Example 247, (5-Phenoxy-2-{(S)-4-[morpholin-4-yl-ethyl]-4,5-dihydro-thiazol-2-yl}-1H-indol-7-yl)-(tetrahydropyran-4-yl)methyl-amine], the EC50 came to 860 nM.

Staying with this experiment, now noted: primary rat hepatocytes pretreated with compound for 30 min, then doxorubicin; viability by WST-1 after 24-48 h.
Turning to `CS(=O)(=O)CC[C@@H]1CSC(c2cc3cccc(NC4CCOCC4)c3[nH]2)=N1` [Example 218], the EC50 is 260 nM. Still for that read-out and setting: to `O=C(CO)N1CCN(CC[C@H]2CSC(c3cc4cc(Oc5ccccc5)cc(NC5CCCC5)c4[nH]3)=N2)CC1` [Example 229] belongs 250 nM; to `CC(C)(C)OC(=O)N1CCN(CC[C@H]2CSC(c3cc4cc(Oc5ccccc5)cc(NC5CCCC5)c4[nH]3)=N2)CC1` [Example 231, t-Butyl-(4-{2-[(S)-2-(5-phenoxy-7-cyclopentylamino)-1H-indol-2-yl)-4,5-dihydro-thiazol-4-yl]-ethyl}-piperazine-1-carboxylate], 200 nM. Same read-out and setting: under `O=C1CN(CC[C@H]2CSC(c3cc4cc(Oc5ccccc5)cc(NC5CCCC5)c4[nH]3)=N2)CCN1` [Example 233] stands 270 nM; under `O=C(C1CCCO1)N1CCN(CC[C@H]2CSC(c3cc4cc(Oc5ccccc5)cc(NC5CCCC5)c4[nH]3)=N2)CC1` (stereo partly shown) [Example 234], 90 nM. Still for that read-out and setting: under `c1ccc(Oc2cc(NC3CCCC3)c3[nH]c(C4=N[C@@H](CCN5CCN(c6ccccn6)CC5)CS4)cc3c2)cc1` [Example 235, (5-Phenoxy-2-{(S)-4-[(pyridin-2-yl)piperazine-ethyl]-4,5-dihydro-thiazol-2-yl}-1H-indol-7-yl)-cyclopentyl-amine] stands over 540 nM.

Regarding `Fc1ccccc1N1CCN(CC[C@H]2CSC(c3cc4cc(Oc5ccccc5)cc(NC5CCCC5)c4[nH]3)=N2)CC1` [Example 236, (5-Phenoxy-2-{(S)-4-[(2-fluorophenyl)piperazine-ethyl]-4,5-dihydro-thiazol-2-yl}-1H-indol-7-yl)-cyclopentyl-amine], the EC50 was determined as 160 nM. The same measure, in the same setting: to `CC(=O)N1CCN(CC[C@H]2CSC(c3cc4cc(Oc5ccccc5)cc(NC5CCCC5)c4[nH]3)=N2)CC1` [Example 239] belongs 830 nM.

As a reminder, the EC50 is the concentration at which the effect is half-maximal.
